Assay results published in patent publication US20250163076A1, “SYNTHESIS OF BRUTON'S TYROSINE KINASE INHIBITORS” (JANSSEN PHARMACEUTICA NV, priority 2022, published 2025).
Converted amounts (≈) assume the structure as drawn. Like-named read-outs stand apart in the source and are kept apart here. Marks after values point to notes of the source that are not given here. Each block holds one molecule with its values, some of them ahead of it.

Experiments:
[1] = Solubility of P and M forms in solvent systems and their water mixtures; format: physicochemical
Source text: Moreover, this solubility difference can be tuned by changing the ratio between 1-propanol/water. Therefore, M form can be efficiently converted even starting from a 1:1 d.r. mixture.

[2] = target: BTK (Homo sapiens, UniProt Q06187); assay: BTK covalent inhibition kinetics (KI, kinact, kinact/KI); format: biochemical; settings: Table 4; for Ki / kinact: average of 2 independent determinations (± SD)
Description: The development of the structure-activity relationship was conducted by characterizing the non-covalent affinity of each inhibitor for BTK (KI) and the first order rate constant for irreversible covalent bond formation (kinact). The second order rate constant kinact/KI ratio is used to assess the covalent inhibitor potency because it is independent of incubation time and substrate concentrations (Copeland, R. A. Evaluation of Enzyme Inhibitors in Drug Discovery: a Guide for Medicinal Chemists and Pharmacologists; 2nd ed.; Wiley: Hoboken, N.J., 2013).

[3] = Aqueous solubility at pH 2 and pH 7; format: physicochemical; settings: aqueous medium, Table 4
[4] = Human liver microsomes T1/2; format: in vitro ADME; settings: human, liver microsomes; Table 4
[5] = aqueous buffer, pH 7, read-out: Solubility pH 7
[6] = simulated gastric fluid, pH 2, read-out: Solubility pH 2

Chain of BTK (Q06187 whole entry): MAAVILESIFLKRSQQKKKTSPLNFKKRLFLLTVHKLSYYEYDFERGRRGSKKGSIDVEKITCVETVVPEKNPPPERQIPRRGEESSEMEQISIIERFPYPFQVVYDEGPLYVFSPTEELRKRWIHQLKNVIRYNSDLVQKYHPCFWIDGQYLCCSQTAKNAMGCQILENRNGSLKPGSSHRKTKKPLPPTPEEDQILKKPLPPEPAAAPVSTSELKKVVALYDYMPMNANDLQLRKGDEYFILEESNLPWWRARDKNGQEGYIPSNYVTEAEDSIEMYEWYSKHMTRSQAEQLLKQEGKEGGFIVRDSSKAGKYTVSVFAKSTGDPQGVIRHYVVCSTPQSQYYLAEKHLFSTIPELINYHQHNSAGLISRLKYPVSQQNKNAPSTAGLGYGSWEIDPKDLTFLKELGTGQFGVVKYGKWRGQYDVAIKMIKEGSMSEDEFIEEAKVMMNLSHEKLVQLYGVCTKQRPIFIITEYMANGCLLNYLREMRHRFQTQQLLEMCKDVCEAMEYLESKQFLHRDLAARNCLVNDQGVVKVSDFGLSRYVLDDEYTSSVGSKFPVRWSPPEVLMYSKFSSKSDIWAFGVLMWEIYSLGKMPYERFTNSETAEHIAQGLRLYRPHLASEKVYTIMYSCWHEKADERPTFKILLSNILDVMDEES

Structure (SMILES): C=CC(=O)N[C@H]1CCC[C@H]1NC(=O)c1sc2nccc3c2c1NC(=O)N3c1cnc(CC(C)C)cc1C (single isomer, unassigned) [M form]
Solubility ([1]; 1-Butanol/water (~6/94 w/w %), 10° C.): 0.2 mg/mL (≈ 0.386 mM)
Solubility ([1]; 1-Butanol/water (~6/94 w/w %), 25° C.): 0.3 mg/mL (≈ 0.578 mM)
Solubility ([1]; 1-Butanol/water (~6/94 w/w %), 50° C.): immiscible
Solubility ([1]; 1-Butanol/water (~80/20 w/w %), 10° C.): 346.6 mg/mL (≈ 668 mM)
Solubility ([1]; 1-Butanol/water (~80/20 w/w %), 25° C.): 334.0 mg/mL (≈ 644 mM)
Solubility ([1]; 1-Butanol/water (~80/20 w/w %), 50° C.): immiscible
Solubility ([1]; 1-Butanol, 10° C.): 397.5* mg/mL
Solubility ([1]; 1-Butanol, 25° C.): 266.2 mg/mL (≈ 513 mM)
Solubility ([1]; 1-Butanol, 50° C.): 444.7 mg/mL (≈ 857 mM)
Solubility ([1]; 1-Propanol/water (20/80 w/w %), 10° C.): 4.2 mg/mL (≈ 8.1 mM)
Solubility ([1]; 1-Propanol/water (20/80 w/w %), 25° C.): 3.7 mg/mL (≈ 7.13 mM)
Solubility ([1]; 1-Propanol/water (20/80 w/w %), 50° C.): 4.9 mg/mL (≈ 9.45 mM)
Solubility ([1]; 1-Propanol/water (33/67 w/w %), 25° C.): 39.9 mg/mL (≈ 76.9 mM)
Solubility ([1]; 1-Propanol/water (33/67 w/w %), 50° C.): 285.9 mg/mL (≈ 551 mM)
Solubility ([1]; 1-Propanol/water (50/50 w/w %), 25° C.): 187.5 mg/mL (≈ 362 mM)
Solubility ([1]; 1-Propanol/water (50/50 w/w %), 50° C.): 276.3 mg/mL (≈ 533 mM)
Solubility ([1]; 1-Propanol/water (67/33 w/w %), 10° C.): 341.7 mg/mL (≈ 659 mM)
Solubility ([1]; 1-Propanol/water (67/33 w/w %), 25° C.): 336.5 mg/mL (≈ 649 mM)
Solubility ([1]; 1-Propanol/water (67/33 w/w %), 50° C.): 363.3 mg/mL (≈ 700 mM)
Solubility ([1]; 1-Propanol/water (80/20 w/w %), 10° C.): 394.0 mg/mL (≈ 760 mM)
Solubility ([1]; 1-Propanol/water (80/20 w/w %), 25° C.): 386.8 mg/mL (≈ 746 mM)
Solubility ([1]; 1-Propanol/water (80/20 w/w %), 50° C.): 394.5 mg/mL (≈ 761 mM)
Solubility ([1]; 1-Propanol, 10° C.): 500.4 mg/mL (≈ 965 mM)
Solubility ([1]; 1-Propanol, 25° C.): 265.4 mg/mL (≈ 512 mM)
Solubility ([1]; 2-butanol/water (~17/83 w/w %), 10° C.): 2.5 mg/mL (≈ 4.82 mM)
Solubility ([1]; 2-butanol/water (~17/83 w/w %), 25° C.): 1.7 mg/mL (≈ 3.28 mM)
Solubility ([1]; 2-butanol/water (~17/83 w/w %), 50° C.): 0.2 mg/mL (≈ 0.386 mM)
Solubility ([1]; Isobutanol/water (~8/92 w/w %), 10° C.): 0.2 mg/mL (≈ 0.386 mM)
Solubility ([1]; Isobutanol/water (~8/92 w/w %), 25° C.): 0.2 mg/mL (≈ 0.386 mM)
Solubility ([1]; Isobutanol/water (~8/92 w/w %), 50° C.): 0.1 mg/mL (≈ 0.193 mM)
Solubility ([1]; Isobutanol, 10° C.): 272.5* mg/mL
Solubility ([1]; Isobutanol, 25° C.): 238.0 mg/mL (≈ 459 mM)
Solubility ([1]; Isobutanol, 50° C.): 389.4 mg/mL (≈ 751 mM)
Solubility ([1]; Isopropanol/water (~16/84 w/w %), 10° C.): 0.6 mg/mL (≈ 1.16 mM)
Solubility ([1]; Isopropanol/water (~16/84 w/w %), 25° C.): 0.6 mg/mL (≈ 1.16 mM)
Solubility ([1]; Isopropanol/water (~16/84 w/w %), 50° C.): 4.0 mg/mL (≈ 7.71 mM)
Solubility ([1]; Isopropanol/water (~28/72 w/w %), 10° C.): 3.0 mg/mL (≈ 5.78 mM)
Solubility ([1]; Isopropanol/water (~28/72 w/w %), 25° C.): 4.6 mg/mL (≈ 8.87 mM)
Solubility ([1]; Isopropanol/water (~28/72 w/w %), 50° C.): 10.0 mg/mL (≈ 19.3 mM)
Solubility ([1]; Isopropanol/water (~44/56 w/w %), 10° C.): 31.0 mg/mL (≈ 59.8 mM)
Solubility ([1]; Isopropanol/water (~44/56 w/w %), 25° C.): 31.0 mg/mL (≈ 59.8 mM)
Solubility ([1]; Isopropanol/water (~44/56 w/w %), 50° C.): >200 mg/mL
Solubility ([1]; Isopropanol/water (~61/39 w/w %), 10° C.): 126.0 mg/mL (≈ 243 mM)
Solubility ([1]; Isopropanol/water (~61/39 w/w %), 25° C.): 109.0 mg/mL (≈ 210 mM)
Solubility ([1]; Isopropanol/water (~61/39 w/w %), 50° C.): >200 mg/mL
Solubility ([1]; Propylene carbonate/water (93/7 w/w %), 10° C.): 129.8 mg/mL (≈ 250 mM)
Solubility ([1]; Propylene carbonate/water (93/7 w/w %), 25° C.): 123.9 mg/mL (≈ 239 mM)
Solubility ([1]; Propylene carbonate/water (93/7 w/w %), 50° C.): 106.5 mg/mL (≈ 205 mM)
Solubility ([1]; Propylene carbonate, 10° C.): 163.1 mg/mL (≈ 314 mM)
Solubility ([1]; Propylene carbonate, 25° C.): 73.7 mg/mL (≈ 142 mM)
Solubility ([1]; Propylene carbonate, 50° C.): 107.0* mg/mL

Structure (SMILES): C=CC(=O)N1CCCC(NC(=O)c2sc3nccc4c3c2NC(=O)N4c2cnc(OC3CCCC3)cc2C)C1 (stereo not shown) [Compound G]
Ki [2]: 22.2 ± 3.3 nM
kinact [2]: 0.000307 s⁻¹
kinact/KI ([2]; read-out: kinact/KI): 13800 ± 430 M⁻¹ s⁻¹
Solubility [3, 5]: < 4 µM
Solubility [3, 6]: 15 µM (≈ 8.2 µg/mL)
half-life [4]: < 4 min

Continued, values first:

Ki [2]: 69.9 ± 0.2 nM
kinact [2]: 0.000333 s⁻¹
kinact/KI ([2]; read-out: kinact/KI): 4770 ± 7450 M⁻¹ s⁻¹
Solubility [3, 5]: 9 µM (≈ 4.99 µg/mL)
Solubility [3, 6]: 16 µM (≈ 8.87 µg/mL)
half-life [4]: 4 min
Structure (SMILES): C=CC(=O)N1CCCC(NC(=O)c2sc3nccc4c3c2NC(=O)N4c2ncc(Oc3ccccc3)cc2C)C1 (stereo not shown) [E]

kinact/KI [2]: 1660 ± 62 M⁻¹ s⁻¹
Ki [2]: 208 ± 15 nM
kinact [2]: 0.000345 s⁻¹
kinact/KI ([2]; read-out: kinact/KI): 1660 M⁻¹ s⁻¹
Solubility [3, 5]: 68 µM (≈ 35.4 µg/mL)
Solubility [3, 6]: 119 µM (≈ 62 µg/mL)
half-life [4]: 19 min
Structure (SMILES): C=CC(=O)N1CCCC(NC(=O)c2sc3nccc4c3c2NC(=O)N4c2cnc(OC(C)C)cc2C)C1 (stereo not shown) [Compound I]

Ki [2]: 27.6 nM
kinact [2]: 0.000352 s⁻¹
kinact/KI ([2]; read-out: kinact/KI): 13000 ± 1700 M⁻¹ s⁻¹
Solubility [3, 5]: 7 µM (≈ 3.88 µg/mL)
Solubility [3, 6]: 15 µM (≈ 8.32 µg/mL)
half-life [4]: 5 min
Structure (SMILES): C=CC(=O)N1CCCC(NC(=O)c2sc3nccc4c3c2NC(=O)N4c2cnc(Oc3ccccc3)cc2C)C1 (stereo not shown) [Compound F]
